Assay results: patent publication US20260232706A1, “1H-PYRAZOLE ANALOGUES AND METHODS AND USES THEREOF” (University of Manitoba, priority 2022, published 2026)

What was measured:
[1] = test system: primary cortical neuronal cells; experiment: Neurotoxicity/cell viability analysis in primary cortical neuronal cells (WST-8); type: cell-based, mouse; details: for cell viability compared to controls: 10 μM and 1 μM, FIG. 6B
Procedure: (§1) Methods: The in vitro properties and antioxidant abilities of the synthesized B^5-EDR analogues were assessed in cell-based assays. […] The methodology employed for each of these assays is detailed below.
(i) Methodology for neurotoxicity/cell viability analysis in primary cortical neuronal cells (FIGS. 6A-B): Briefly, the cerebral cortex was isolated from fetus of mouse at about 17-about 18-day gestation. After meninges and blood vessels were removed, the tissue was digested with trypsin for about 15 min at about 37° C., then incubated with DNase for about another 15 min at about 37° C. and terminated with DMEM plus about 10% fetal bovine serum. After the supernatant was removed, the tissue was added with about 5-ml neurobasal medium (Life Technologies Inc) and triturated by gently pipetting. Neuronal cells contained in the supernatant were transferred to poly-D-lysine-coated plastic culture plates, adjusted to approximately […], and cultured in neurobasal medium with GS21 supplements (Sigma-Aldrich Canada), 1× GlutaMax (Life Technologies Inc,) and about 1% penicillin-streptomycin at about 37° C. under about 5% CO2. About 100 kcells/100 μl/well were seeded in 96 well plates for 2 Div. […] On 8th Div of neurons, about 10 μl of WST reagent was added to each well and incubated for about 2 h. After about 2 h of incubation, the absorbance of soluble coloured formazan dye was measured […] at about […] using microplate reader (Biotek instruments) with the background control as a blank. The cell viability was determined by comparing the absorbance of compounds treated cells to that of control cells. Data are representative of two independent experiments, with each measurement or dose tested six times.

[2] = test system: neuroblastoma-spinal cord hybrid NSC-34 cells; experiment: Neuroprotective effect/cell viability analysis in NSC-34 cells against H2O2 induced oxidative stress; type: cell-based; details: for neuroprotection in scavenging neurotoxic effects of H2O2 compared to EDR / viability compared to EDR: 250 μM H2O2; for viability compared to EDR: 50 μM dose
Procedure: as §1
(iii) Methodology for neuroprotective effect/cell viability analysis in (NSC-34) cells (FIGS. 8A-B): Briefly, NSC-34 cells with about 20 k cells per well in 96 well plates were cultured in a complete medium consisting of high glucose Dulbecco's modified eagle medium (DMEM) (Thermo Fisher Scientific) supplemented with about 10% US-origin fetal bovine serum (Thermo Fisher Scientific), GlutaMAX-1, about 200 mM (100×) (Thermo Fisher Scientific), about 1% 100 mM Sodium pyruvate and about 1% 10,000 U/mL penicillin-streptomycin solution (Thermo Fisher Scientific) for about 20 h to reach confluency of about 70%—about 75%. All the cells were cultured in an incubator with about 5% of CO2 at about 37° C. About 20 kcells/100 μl/well were seeded in 96 well plates for about 20 h in triplicates. […] After about 1 h, the cells were treated with 250 μM of H2O2 for about 2 h. After a total period of about 3 h, about 10 μl of WST-8 reagent was added in each well and the absorbance readings were recorded after about 2.5 h at about 450 nm. All the experiments were repeated at least three times and measurements were run in triplicates.

[3] = target: P-glycoprotein (Pgp) efflux pump (Homo sapiens, UniProt P08183); details: cited from earlier work
Sequence of P-glycoprotein (Pgp) efflux pump (P08183 whole entry): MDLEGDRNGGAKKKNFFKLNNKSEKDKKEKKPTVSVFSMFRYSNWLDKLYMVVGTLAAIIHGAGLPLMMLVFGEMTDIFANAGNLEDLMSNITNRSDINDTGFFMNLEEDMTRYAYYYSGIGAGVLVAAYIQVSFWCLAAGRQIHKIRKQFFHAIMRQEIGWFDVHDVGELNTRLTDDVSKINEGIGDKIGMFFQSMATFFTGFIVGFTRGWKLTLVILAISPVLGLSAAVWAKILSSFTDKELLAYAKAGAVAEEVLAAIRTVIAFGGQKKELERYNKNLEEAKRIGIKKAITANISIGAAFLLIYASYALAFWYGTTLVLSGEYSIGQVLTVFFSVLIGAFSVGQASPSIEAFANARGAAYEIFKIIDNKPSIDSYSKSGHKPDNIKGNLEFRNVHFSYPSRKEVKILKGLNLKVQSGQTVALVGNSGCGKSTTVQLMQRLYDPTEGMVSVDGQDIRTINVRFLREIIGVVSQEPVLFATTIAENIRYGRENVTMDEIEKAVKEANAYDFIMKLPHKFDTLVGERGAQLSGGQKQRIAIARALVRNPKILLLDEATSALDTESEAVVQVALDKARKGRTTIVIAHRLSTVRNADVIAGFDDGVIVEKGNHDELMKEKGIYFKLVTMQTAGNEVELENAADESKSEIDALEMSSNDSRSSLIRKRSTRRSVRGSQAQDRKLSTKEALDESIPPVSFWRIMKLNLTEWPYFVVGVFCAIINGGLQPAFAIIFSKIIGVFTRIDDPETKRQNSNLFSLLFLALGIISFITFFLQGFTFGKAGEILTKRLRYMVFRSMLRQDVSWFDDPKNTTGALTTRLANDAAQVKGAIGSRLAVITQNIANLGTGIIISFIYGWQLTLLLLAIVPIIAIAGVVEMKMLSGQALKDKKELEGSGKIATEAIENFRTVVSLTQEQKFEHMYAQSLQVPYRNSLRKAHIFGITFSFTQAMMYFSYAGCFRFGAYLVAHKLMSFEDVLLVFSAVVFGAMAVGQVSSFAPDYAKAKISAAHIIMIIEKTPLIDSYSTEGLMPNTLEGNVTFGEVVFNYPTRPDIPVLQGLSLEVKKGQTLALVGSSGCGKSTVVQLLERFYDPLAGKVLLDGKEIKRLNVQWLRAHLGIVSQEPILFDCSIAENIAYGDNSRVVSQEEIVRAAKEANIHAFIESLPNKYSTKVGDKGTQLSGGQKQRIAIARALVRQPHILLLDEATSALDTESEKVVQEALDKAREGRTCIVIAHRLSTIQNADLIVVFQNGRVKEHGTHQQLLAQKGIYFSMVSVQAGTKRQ

[4] = cited from earlier work
[5] = target: CYP3A4 enzymes (Homo sapiens, UniProt P08684); details: cited from earlier work
Sequence of CYP3A4 enzymes (P08684 whole entry): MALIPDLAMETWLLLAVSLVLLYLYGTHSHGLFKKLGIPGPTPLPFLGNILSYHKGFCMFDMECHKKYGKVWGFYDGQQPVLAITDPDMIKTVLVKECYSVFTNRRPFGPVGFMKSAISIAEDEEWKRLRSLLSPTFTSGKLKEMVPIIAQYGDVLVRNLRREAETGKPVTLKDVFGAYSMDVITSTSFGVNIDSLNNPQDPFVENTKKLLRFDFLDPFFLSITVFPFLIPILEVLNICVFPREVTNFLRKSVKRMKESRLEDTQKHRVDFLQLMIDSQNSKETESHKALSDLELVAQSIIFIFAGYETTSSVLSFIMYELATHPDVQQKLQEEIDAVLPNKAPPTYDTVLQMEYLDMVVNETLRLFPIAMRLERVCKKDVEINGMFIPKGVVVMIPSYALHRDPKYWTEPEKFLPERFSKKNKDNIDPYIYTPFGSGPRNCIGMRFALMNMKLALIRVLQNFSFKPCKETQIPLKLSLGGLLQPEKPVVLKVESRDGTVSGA

[6] = test system: ALS; details: patients in early stages, drug for 6 months or more; cited from earlier work
[7] = test system: neuroblastoma-spinal cord hybrid NSC-34 cells; experiment: Neuroprotective effect/cell viability analysis in NSC-34 cells against H2O2 induced oxidative stress; type: cell-based; details: prophylactic treatment, 250 μM H2O2, FIG. 7A
[8] = test system: neuroblastoma-spinal cord hybrid NSC-34 cells; experiment: Neurotoxicity/cell viability analysis in NSC-34 cells (WST-8); type: cell-based; details: 1 to 100 μM
Procedure: as §1
(ii) Methodology for neurotoxicity/cell viability analysis in (NSC-34) cells (FIGS. 7A-C): Briefly, NSC-34 cells with about 20 k cells per well in 96 well plates were cultured in a complete medium consisting of high glucose Dulbecco's modified eagle medium (DMEM) (Thermo Fisher Scientific) supplemented with about 10% US-origin fetal bovine serum (Thermo Fisher Scientific), GlutaMAX-1, about 200 mM (100×) (Thermo Fisher Scientific), about 1% 100 mM Sodium pyruvate and about 1% 10,000 U/mL penicillin-streptomycin solution (Thermo Fisher Scientific) for about 20 h to reach confluency of about 70%—about 75%. All the cells were cultured in an incubator with about 5% of CO2 at about 37° C. About 20 kcells/100 μl/well were seeded in 96 well plates for about 20 h in triplicates. Cells were treated with different concentration of compounds and incubated for about 20 h. […] After about 2.5 h of incubation, the absorbance of soluble coloured formazan dye was measured […] at about […] using microplate reader (Biotek instruments) with the background control as a blank. The cell viability was determined by comparing the absorbance of compounds treated cells to that of control cells. […]

Compound	cell viability compared to controls [1]	neuroprotection in scavenging neurotoxic effects of H2O2 compared to EDR ([2]; 1 μM)	neuroprotection in scavenging neurotoxic effects of H2O2 compared to EDR ([2]; 25 μM)	viability compared to EDR [2]	P-glycoprotein efflux pump substrate status [3]	decrease in cell viability compared to control (DMSO) ([1]; mouse, 6 days, 25 μM)	aqueous solubility [4]	fraction of EDR existing as an anion ([4]; physiological pH about 7.4)	fraction of EDR existing in neutral form ([4]; physiological pH about 7.4)	metabolism by CYP3A4 [5]	H2O2 scavenging effects ([2]; 250 μM H2O2, FIGS. 8A-B)	effect on progression of ALS [6]	protection from loss of cell viability induced by H2O2 [7]	neurotoxicity and cytotoxicity towards NSC-34 motor neuronal cells [8]
Cc1cc([B-](F)(F)F)n(-c2ccccc2)n1.[K+] [NS-1-21, Potassium trifluoro(3-methyl-1phenyl-1H-pyrazol-5-yl)borate]	around 100%	better neuroprotection	better neuroprotection	almost equal viability	–	–	–	–	–	–	–	–	–	–
F[B-](F)(F)c1cc(C(F)(F)F)nn1-c1ccccc1.[K+] [NS-1-19, Potassium trifluoro(3-triflouromethyl-1phenyl-1H-pyrazol-5-yl)borate]	around 100%	better neuroprotection	better neuroprotection	almost equal viability	–	–	–	–	–	–	–	–	–	–
CC1=NN(c2ccccc2)C(=O)C1 [EDR, 3-methyl-1-phenyl-2-pyrazolin-5-one]	–	–	–	–	substrate	~70±10%	about 1.85 mg/ml	about 71.5%	about 28.5%	metabolized pre-systematically	significant H2O2 scavenging effects in a dose dependent manner	delayed the progression of ALS	protected NSC-34 cells from loss of cell viability	no neurotoxicity and cytotoxicity
CC1(C)OB(c2cc(C(F)(F)F)nn2-c2ccccc2)OC1(C)C [NS-1-12, 3-triflouromethyl-5-(4,4,5,5-tetramethyl-1,3,2-dioxaborolan-2-yl)-1-phenyl1H-pyrazole]	–	–	better neuroprotection	almost equal viability	–	–	–	–	–	–	–	–	–	–
